The values below come from patent US5705533A, “10-thio-substituted 1,8-dihydroxy-9 (10H) -anthracenone pharmaceuticals” (Teva Pharmaceutical Industries Ltd., priority 1995, dated 1998).

In one series the test system is HaCaT cells. As to the kind of experiment: Antiproliferative Activity Assay, HaCaT cell growth. Format: cell-based, human. The conditions noted are these: 48 h. The protocol: HaCaT cells, a rapidly multiplying human keratinocyte cell line, were grown in Dulbecco's modified Eagle medium (DMEM), No. 041-11965A, Gibco) supplemented with 10% fetal calf serum, penicillin (100U/ml), streptomycin (100 μg/ml) in a humidified incubator containing 8% CO2 at 37° C. Cells ([…] /1.1 ml suspension per well) were seeded on 24-wells-multidishes and grown in DMEM. After 24 hours growth the medium was replaced with fresh medium and the test compounds (0.1-5 μM) were added. […] Controls were performed with DMSO or with medium alone. Forty-eight hours after addition of the test compound to the culture, the medium was removed and each well was rinsed with 100 μL PBS. The cells were then incubated with sterile 0.5% trypsin, 0.2% EDTA in PBS for 20 minutes at 37° C. The detached cells from each well were suspended in DMEM and dispersed into single cells by gentle pipetting through an Eppendorf pipette, and cell growth was determined directly by counting the keratinocytes in a Neubauer counting chamber using phase contrast microscopy. Inhibition was calculated by comparison of the mean values of the test compound (N=3) with the control (N=6-8) activity: (1-test compound/control)×100.

A further series deals with T1, 5-LO (Bos taurus, UniProt F1MQ78).
T1 construct: Polymorphonuclear leukocytes (PMNL) were prepared from sodium EDTA-anticoagulated bovine blood; endogenous in cells; host or cells: bovine polymorphonuclear leukocytes isolated from EDTA-anticoagulated blood (intact cells, A23187-stimulated)
T1 sequence (F1MQ78 1-674): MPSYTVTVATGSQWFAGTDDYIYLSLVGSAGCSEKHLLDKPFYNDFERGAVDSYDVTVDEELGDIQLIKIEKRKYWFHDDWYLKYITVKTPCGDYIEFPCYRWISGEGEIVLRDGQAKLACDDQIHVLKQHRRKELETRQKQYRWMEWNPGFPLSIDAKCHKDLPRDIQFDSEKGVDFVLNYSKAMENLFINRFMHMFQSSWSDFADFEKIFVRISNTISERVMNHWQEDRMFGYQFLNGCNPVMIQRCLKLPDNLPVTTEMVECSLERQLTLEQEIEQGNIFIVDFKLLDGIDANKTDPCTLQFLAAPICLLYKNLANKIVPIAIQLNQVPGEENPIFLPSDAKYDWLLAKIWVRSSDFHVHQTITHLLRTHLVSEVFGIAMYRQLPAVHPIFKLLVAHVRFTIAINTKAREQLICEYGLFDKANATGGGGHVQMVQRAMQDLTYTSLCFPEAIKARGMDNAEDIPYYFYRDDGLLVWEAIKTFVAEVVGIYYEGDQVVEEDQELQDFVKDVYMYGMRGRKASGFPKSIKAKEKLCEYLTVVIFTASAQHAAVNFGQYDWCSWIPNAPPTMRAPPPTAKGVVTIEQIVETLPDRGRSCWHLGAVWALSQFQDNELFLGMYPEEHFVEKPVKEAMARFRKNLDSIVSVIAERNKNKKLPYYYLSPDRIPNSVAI
As to the kind of experiment: Bovine PMNL 5-Lipoxygenase Assay (inhibition of 5-HETE and LTB4 biosynthesis). The class given is cell-based. The conditions noted are these: for inhibition at 30 µM: PMNL, read-out: 5-LO percent inhibition. The protocol:
Polymorphonuclear leukocytes (PMNL) were prepared from sodium EDTA-anticoagulated bovine blood, essentially as described by Walstra, P. et al., "Leukotriene Formation by Bovine Polymorphonuclear Leukocytes", Biochim. Biophys. Acta, 795,499-503 (1984). Contaminating platelets were removed by repeated centrifugations at 100 g for 20 min. The purified PMN leukocytes were suspended at a concentration of 1×10^7 cells/ml in phosphate buffered saline (PBS, composed of 8.00 g NaCl, 0.20 g KCl, 1.00 g Na2 HPO4 .cndot.2H2 O, 0.15 g NaH2 PO4 .cndot.H2 O, 0.20 g KH2 PO4, adjusted to pH 7.4 with 3 N NH3 in a final volume of 1000 ml of double distilled H2 O). Cell counts were conducted with a Sysmex microcellcounter CC-130. Preincubation was performed with 2.4 ml of the suspension and 10 μl of a DMSO stock solution of each test compound at the desired concentration in PBS or vehicle control (DMSO at final concentration of 0.4%) for 15 min at 37° C. in a shaking water bath. The syntheses of LTB 4 and 5-HETE were stimulated by the addition of CaCl2 and Ca-ionophore A23187 (final concentrations 2 mM and 20 μM, respectively), and the incubation was conducted for 10 min at 37° C. 5-LO product formation was terminated by the addition of 3.0 ml of methanol/acetonitrile (1+1) containing NDGA as radical scavenger (final concentration 0.01 mM) and prostaglandin B2 PG B2 as chromatographic marker (final concentration 0.3 μM). The incubation mixture was kept in an ice bath for 20 min and then centrifuged at 4000 g for 5 min at 0° C. The supernatant was diluted with 5 ml of water and passed through a prewashed (10 ml of methanol and 5 ml of water, sequentially) octadecylsilane reversed phase cartridge (Baker). The eicosanoids were eluted with 3 ml of methanol, diluted with 3 ml of water and subjected to reversed phase high performance liquid chrometography (HPLC) analysis, performed on a 250×4 mm column packed with Nucleosil C18 (7 μm particles; Bischoff, Leonberg, Germany). The isocratic elution conditions of LTB4 were tetrahydrofuran (THF)/methanol/water/acetic acid (25+30+45+0.1), adjusted to pH 5.5 with concentrated NH3, at a flow rate of 0.9 ml/min (Kontron 420 pump), monitored at 280 nm with a Kontron 735 LC UV detector, whereas 5-HETE was monitored at 232 nm using methanol/water/acetic acid (77+23+0.1), pH 5.5,flow rate 1.0ml/min. Data were recorded on a MacLab data acquisition system (WissTech, Germany) and analysis was performed with the application Peaks on an Apple Macintosh Quadra 700 computer. Integrated areas of the peaks were compared to the PGB2 internal standard and to external standards of test samples. Molar absorption coefficients of Samuelsson et al., Borgeat, P. and B. Samuelsson, "Arachidonic Acid Metabolism in Polymorphonuclear Leukocytes: Effects of Ionophore A23187", Proc. Nat. Acad. Sci. USA, 76, 2148-2152 (1979), were used for calculations. Inhibition was calculated by comparison of the mean values of test compound (n=3) with control (n=6-8) activity: (1-test compound/control)×100.
By the above method, the anthracenone derivatives of the invention were evaluated for their ability to inhibit the production of LTB4 and 5-HETE in isolated bovine polymorphonuclear leucocytes (PMNL), see Walstra, P. et al., "Leukotriene Formation by Bovine Polymorphonuclear Leukocytes", Biochim. Biophys. Acta, 795,499-503 (1984); Dannhardt, G. and also M. Lehr, "In-Vitro Evaluation of 5-Lipoxygenase and Cyclo-Oxygenase Inhibitors Using Bovine Neutrophils and Platelets and HPLC", J. Pharm. Pharmacol., 44, 419-424 (1992). LTB4 and 5-HETE concentrations were measured by reversed-phase HPLC with UV detection.

The conditions of series [1]: Unna 1916; cited from earlier work.
For series [2] the following is noted: therapeutic application; cited from earlier work.
The test system of series [3] is LTB4 production in bovine neutrophils. The conditions noted are these: read-out: Inhibition of production of LTB4, IC50; cited from earlier work.
Series [4] deals with LTB4 production in human neutrophils. The following applies: depending on cell density, read-out: Inhibition of production of LTB4, IC50; cited from earlier work.
Setting [5] is: Homo sapiens, HaCaT, HaCaT cells, N = 3, read-out: AA IC50 (antiproliferative activity).
The mark [6] stands for this setting: HaCaT cells, N = 3, read-out: AA IC50 (antiproliferative activity).

Read-outs that look alike come from different tables or passages of the source.

On to `Nc1ccc(SC2c3cccc(O)c3C(=O)c3c(O)cccc32)cc1` [Compound 3n], for which the half-maximal inhibitory concentration (IC50) (commonly the concentration needed to halve the response being measured) in the series on HaCaT cells (setting [5]) was 0.9 µM; on 5-LO (read-out: 5-LO IC50), 7.5 µM.
Take `COc1cccc(SC2c3cccc(O)c3C(=O)c3c(O)cccc32)c1` [Compound 3j]: in the series with HaCaT cells (setting [5]), the IC50 came out at 1.8 µM. In addition, at 5-LO, the inhibition – broadly, the drop in the measured response relative to a control, in per cent – at 30 µM came to 100%.
On to `O=C1c2c(O)cccc2C(Sc2ccccc2O)c2cccc(O)c21` [Compound 4a], for which the half-inhibitory concentration (IC50) in the series with HaCaT cells (setting [5]) came to 1.75 µM; at 5-LO (read-out: 5-LO IC50), 5 µM.
As for `CC(SC1c2cccc(O)c2C(=O)c2c(O)cccc21)C(=O)O` (centres unmarked) [Compound 3b], the IC50 in the series on HaCaT cells (setting [5]) was found to be 0.2 µM. In addition, at 5-LO, the inhibition at 30 µM turned out to be 28%.
For the compound `O=C1c2ccccc2Cc2cccc(O)c21` [1-hydroxy-9(10H)-anthracenone], in series [1], the “Therapeutic effect in psoriasis” value is given as “effective in the treatment of psoriasis”.
Turning to `CCCC(=O)C1c2cccc(O)c2C(=O)c2c(O)cccc21` [butantrone, 10-Butyryl-Dithranol], in series [2], the “Irritation / side effects” value is “elicits a widespread and delayed irritation effect in many patients”.
Take `O=C1c2c(O)cccc2Cc2cccc(O)c21` [anthralin, 1,8-dihydroxy-9(10H)-anthracenone]: the IC50 in series [3] was 37 µM; in the series on HaCaT cells (setting [5]), 0.6 µM; in series [4], 7 to 74 µM; on 5-LO (read-out: 5-LO IC50), 37 µM. The “Therapeutic effect in psoriasis” value in series [1] is “effective in the treatment of psoriasis”. Further, the “Irritation / side effects” value in series [2] was “non-affected skin surrounding a psoriatic lesion to which anthralin is applied frequently becomes irritated”.
As for `COc1ccc(SC2c3cccc(O)c3C(=O)c3c(O)cccc32)cc1` [Compound 3k], the IC50 in the series with HaCaT cells (setting [5]) was 1.69 µM; on 5-LO (read-out: 5-LO IC50), 3.2 µM.
For the compound `COc1ccccc1SC1c2cccc(O)c2C(=O)c2c(O)cccc21` [Compound 3i], the figures for the IC50 in the series with HaCaT cells (setting [5]) and at 5-LO (read-out: 5-LO IC50) were 4.25 µM and 6.3 µM, respectively.
Regarding `O=C1c2c(O)cccc2C(Sc2ccc(O)cc2)c2cccc(O)c21` [Compound 4b, 1,8-Dihydroxy-10-[(4-hydroxyphenyl)thio]-9(10H)-anthracenone], the IC50 was no more than 0.1 µM with HaCaT cells (setting [6]), less than 0.1 µM in the series with HaCaT cells (setting [5]) and 2.4 µM at 5-LO (read-out: 5-LO IC50).
As for `COC(=O)CSC1c2cccc(O)c2C(=O)c2c(O)cccc21` [3-A, reference compound], the IC50 came to 190 µM in the series with HaCaT cells (setting [5]) and 13 µM at 5-LO.
For the compound `O=C1c2c(O)cccc2C(Sc2ccccc2S)c2cccc(O)c21` [Compound 4c], the IC50 in the series with HaCaT cells (setting [6]) was no more than 0.1 µM; with HaCaT cells (setting [5]), 0.1 µM.
Turning to `O=C1c2c(O)cccc2C(SCCCS)c2cccc(O)c21` [Compound 3f], the IC50 in the series on HaCaT cells (setting [5]) was 0.77 µM. Further, at 5-LO, the inhibition at 30 µM was 14%.
As to `O=C1c2c(O)cccc2C(Sc2cccc(S)c2)c2cccc(O)c21` [Compound 4d], the IC50 with HaCaT cells (setting [5]) is greater than 5 µM.
On to `Nc1ccccc1SC1c2cccc(O)c2C(=O)c2c(O)cccc21` [Compound 3l], for which the IC50 in the series on HaCaT cells (HaCaT cells, N = 3, listed as 31, read-out: AA IC50 (antiproliferative activity)) is no more than 0.1 µM; with HaCaT cells (setting [5]) it was 0.1 µM; at 5-LO (read-out: 5-LO IC50), 2.4 µM.
As for `Nc1cccc(SC2c3cccc(O)c3C(=O)c3c(O)cccc32)c1` [Compound 3m], the IC50 amounted to 1.9 µM with HaCaT cells (setting [5]) and 2.4 µM on 5-LO (read-out: 5-LO IC50).
`O=C1c2c(O)cccc2C(SCc2ccccc2)c2cccc(O)c21` [4A, reference compound]: the IC50 in the series on HaCaT cells (Homo sapiens, HaCaT, read-out: AA IC50 (antiproliferative activity)) came to 1.4 µM. The inhibition at 30 µM at 5-LO was 46%.
For the compound `COC(=O)CCSC1c2cccc(O)c2C(=O)c2c(O)cccc21` [Compound 3c], the IC50 with HaCaT cells (setting [5]) was found to be 1.1 µM; at 5-LO (read-out: 5-LO IC50), 15 µM.
`CCOC(=O)CCSC1c2cccc(O)c2C(=O)c2c(O)cccc21` [Compound 3d]: the IC50 in the series with HaCaT cells (setting [5]) stood at 1.6 µM. Also, the inhibition at 30 µM on 5-LO worked out at 30%.
For the compound `CCCCOC(=O)CCSC1c2cccc(O)c2C(=O)c2c(O)cccc21` [Compound 3e], in the series with HaCaT cells (setting [5]), the IC50 stood at 2.3 µM. On 5-LO, the inhibition at 30 µM turned out to be 62%.
Consider `CCCCOC(=O)CSC1c2cccc(O)c2C(=O)c2c(O)cccc21` [Compound 3a], for which the IC50 with HaCaT cells (setting [5]) is 2.1 µM. For the same compound, the inhibition at 30 µM at 5-LO came to 8%.
The corresponding values for `CCOC(=O)CSC1c2cccc(O)c2C(=O)c2c(O)cccc21` [3-B, reference compound] are 4.52 µM and 42%.
